Reference: patent publication EP4458358A1, “PYRIDAZINE COMPOUNDS FOR ANTIFIBROTIC THERAPY” (Tietze Chemical Consulting UG, priority 2023, dated 2024)

Experiments:
Type in all cases: cell-based
GM637 = experiment: ELISA of secreted pro-collagen I alpha 1 (Type I Collagen) from human dermal fibroblasts GM637
Procedure: (§1) Compounds reconstitution and stock solution: Prior to treatment, DMSO was diluted in PMS until 0,1% DMSO was made. Each compound was solved in 0,1% DMSO (3: 2,5 mg/mL, 1: 2.5 mg/mL, 10: 1 mg/mL, 5: 1mg/mL, 7: 0,6 mg/mL, 16: 1 mg/mL 17: 1 mg/mL, 44: 0,6 mg/mL, 36: 1mg/mL.
(§2) Next the different stock solution with 150 µg and 250 µg of each compound per 1 ml culture solution was made by adding the 0,1% DMSO compound solution in the right amount to culture solution (DMEM with 10% FCS and 1% penicillin-streptomycin).
(§3) Three different cell lines were used for the experiments. GM637 is an immortalized cell line originated from human skin fibroblasts, bought in 2001, UKE1 and […] are cell lines originated from human dermal fibroblasts (dog ear) nurtured from patients, between 60 and 80 years old being completely anonymized at the clinic for dermatology, Rostock.
(§4) The cells lines were thawed and were cultured in Dulbeco's modified Eagel's medium (DMEM, Gibcon, USA) supplemented with 10% fetal bovine serum (FBS, Gibco, Germany) and 1% penicillin-streptomycin (PS, Gibco, USA) at 37 °C in a humidified atmosphere with 5% CO2 until a sufficient number of cells were culture in T75 culture bottles. After reaching a confluence of 80% to 90%, the cells were separated using trypsin and counted. Next 100.000 cells were planted in each well of a 6 well plate in replicates, washed and the DMEM solution with 150 µg and 250 µg/ml substance/DMEM and DMEM with no substance as control was added.
(§5) After 48h and after 72h 100 µl supernatant of each well was taken, labelled and frozen at -20° degree Celsius. Prior to perform ELISA the medium was depending on the cell line diluted 1:50 or 1:100 with PBS, otherwise the concentration of collagen fibers was too high to be measured.
(§6) The media containing the secretion of the different human dermal fibroblasts GM637, UKE1, and HRO159N were collected after 48h and 72h treatment. Secretion of pro-collagen 1 was assessed with human pro-collagen I alpha 1 DuoSet ELISA (R&D systems, USA) To prepare the Elisa plate, Human pro-Collagen I a capture antibody was diluted in ELISA plate-coating buffer at 4µg/mL working concentration. 100 µl of diluted Capture antibody was added to 96-well microplates and incubated over night at room temperature. After three times washing with Wash Buffer, microplates were blocked by adding 300 µl of Reagent Diluent for 1 hour at room temperature. To proceed the ELISA Human pro-collagen I α1 Standards were diluted in Reagent Diluent (range between 31,3 pg/mL - 2000 pg/mL) and 100 µl of standards or conditioned mediums were added to designated wells. Microplates were incubated at room temperature for 2 hours. Human Pro-collagen I α1 Detection Antibody was prepared in Reagent Diluent at […] working concentration and 100 µl of diluted Detection Antibody was applied for 2 hours at room temperature after extensive washing. Then, working solution of Streptavidin-HRP with Reagent Diluent was prepared by diluting 1:40 and added into each well. After 20 minutes at room temperature incubation, microplates were washed and applied with 100 µl of Substrate Solution for 20 minutes followed by Stop Solution after washing. Finally, signals were measured at 450 nm absorbance by PHomo Microplate Reader (Autobio, China) The amount of pro-collagen 1 was quantified by extrapolating the signal into a linear range of a pro-collagen 1 standard curve. Screening compounds were typically tested at concentration of 150 and 250 µg/mL. The dose response data for each compound and the different cell lines were obtained by nonlinear regression analysis using Prism 9 software (GraphPad, La Jolla, USA).

UKE1 = experiment: ELISA of secreted pro-collagen I alpha 1 (Type I Collagen) from human dermal fibroblasts UKE1
Procedure: as §1, §2, §3, §4, §5, §6

HRO159N = experiment: ELISA of secreted pro-collagen I alpha 1 (Type I Collagen) from human dermal fibroblasts HRO159N; conditions: 250 µg
Procedure: as §1, §2, §3, §4, §5, §6

MRCVI = experiment: ELISA of secreted pro-collagen I alpha 1 (Type I Collagen) from human lung fibroblast MRCVI
Procedure: as §1, §2
As cell line MRCV1 was used, which is an immortalized cell line originated from human lung fibroblast, bought in 2001.
as §4, with “cell line was” for “cells lines were”, “and” for “and were”
as §5
The medium containing the secretion of the human lung fibroblast MRCVI was collected after 48h and 72h treatment. Secretion of pro-collagen 1 was assessed with human pro-collagen I alpha 1 DuoSet ELISA (R&D systems, USA) To prepare the Elisa plate, Human pro-Collagen I a capture antibody was diluted in ELISA plate-coating buffer at 4µg/mL working concentration. 100 µl of diluted Capture antibody was added to 96-well microplates and incubated over night at room temperature. After three times washing with Wash Buffer, microplates were blocked by adding 300 µl of Reagent Diluent for 1 hour at room temperature. To proceed the ELISA Human pro-collagen I α1 Standards were diluted in Reagent Diluent (range between 31,3 pg/mL - 2000 pg/mL) and 100 µl of standards or conditioned mediums were added to designated wells. Microplates were incubated at room temperature for 2 hours. Human Pro-collagen I α1 Detection Antibody was prepared in Reagent Diluent at […] working concentration and 100 µl of diluted Detection Antibody was applied for 2 hours at room temperature after extensive washing. Then, working solution of Streptavidin-HRP with Reagent Diluent was prepared by diluting 1:40 and added into each well. After 20 minutes at room temperature incubation, microplates were washed and applied with 100 µl of Substrate Solution for 20 minutes followed by Stop Solution after washing. Finally, signals were measured at 450 nm absorbance by PHomo Microplate Reader (Autobio, China) The amount of pro-collagen 1 was quantified by extrapolating the signal into a linear range of a pro-collagen 1 standard curve. Screening compounds were typically tested at concentration of 150 and 250 µg/mL. The dose response data for each compound and the different cell lines were obtained by nonlinear regression analysis using Prism 9 software (GraphPad, La Jolla, USA).

COc1nn2c(C)nnc2c2ccccc12 [Compound 3, 6-Methoxy-3-methyl-1,2,4-triazolo[3,4-a]phthalazine]
collagen reduction percentage in comparison to the standard (100 %) (GM637; 48h, 150 µg): 89%
collagen reduction percentage in comparison to the standard (100 %) (GM637; 48h, 250 µg): 50%
collagen reduction percentage in comparison to the standard (100 %) (GM637; 72 h, 150 µg): 37%
collagen reduction percentage in comparison to the standard (100 %) (GM637; 72 h, 250 µg): 32%
collagen reduction percentage in comparison to the standard (100 %) (UKE1; 48h, 150 µg): 96%
collagen reduction percentage in comparison to the standard (100 %) (UKE1; 48h, 250 µg): 77%
collagen reduction percentage in comparison to the standard (100 %) (UKE1; 72 h, 150 µg): 71%
collagen reduction percentage in comparison to the standard (100 %) (UKE1; 72 h, 250 µg): 52%
collagen reduction percentage in comparison to the standard (100 %) (HRO159N; 48h): 82%
collagen reduction percentage in comparison to the standard (100 %) (HRO159N; 72 h): 77%
collagen reduction percentage in comparison to the standard (100 %) (MRCVI; 48h, 150 µg): 35%
collagen reduction percentage in comparison to the standard (100 %) (MRCVI; 48h, 250 µg): 11%
collagen reduction percentage in comparison to the standard (100 %) (MRCVI; 72 h, 150 µg): 17%
collagen reduction percentage in comparison to the standard (100 %) (MRCVI; 72 h, 250 µg): 5%
